This note sets out measurements from ChEMBL document CHEMBL4765241, “Identification and Preclinical Pharmacology of ((1 R,3 S)-1-Amino-3-(( S)-6-(2-methoxyphenethyl)-5,6,7,8-tetrahydronaphthalen-2-yl)cyclopentyl)methanol (BMS-986166): A Differentiated Sphingosine-1-phosphate Receptor 1 (S1P) Modulator Advanced into Clinical Trials” (J Med Chem, 2019).

A word on the bioavailability: it is the share of a dose that reaches the circulation, judged against a reference dose that is usually intravenous. A word on the Tmax: it is the time from dosing to the highest level. What is called IC50 is the concentration at which inhibition is half-maximal. In general, ED50 refers to the dose that gives a 50% effect, or the effect in half of the subjects. Usually clearance stands for the rate of elimination divided by the concentration.

A short description of data set [1]: Half-life in Lewis rat at 2 mg/kg, po measured over 72 hrs by LC-MS/MS analysis. It counts as ADME, organism-based. The following applies: in vivo.
Data set [2] can be described thus: Oral bioavailability in Sprague-Dawley rat at 1 mg/kg. As to conditions: in vivo. It is filed as ADME, organism-based.
Data set [3] in a line: AUC ratio in orally dosed Beagle dog blood assessed as phosphate metabolite to parent compound. It counts as ADME, organism-based, Canis lupus familiaris. As to conditions: in vivo, po.
The nature of data set [4]: Tmax in Beagle dog at 0.3 mg/kg, po or 1 mg/kg, iv. It is filed as ADME, organism-based, Canis lupus familiaris. As to conditions: in vivo.
In data set [5] the test system is Mus musculus. The experiment in a line: Immunosuppressive activity in MOG (35 to 55 residues)/pertussis toxin-induced experimental autoimmune encephalomyelitis C57BL/6 mouse model assessed as reduction in formation of inflammatory lesions in CNS administered orally once daily starting from day 1 post immunization and measured thrice weekly until day 24. It counts as functional, organism-based. As to conditions: dose 0.1-0.5 mg/kg.

For data set [6], the system named is Mus musculus. As to the kind of experiment: Antiarthritic activity in DBA/1 mouse model of collagen-induced arthritis assessed as reduction in paw histological score at 0.1 mg/kg, po QD administered as single dose for 21 days. Also noted: scale not given: the % may be the effect or the level left. It is filed as functional. The following applies: time 21 day.

Data set [7] can be described thus: Terminal half-life in Sprague-Dawley rat at 1 mg/kg, iv. It is filed as ADME, organism-based. The following applies: in vivo, read-out: beta t1/2 (converted).
The target in another data set is Cytochrome P450 2C9 (Homo sapiens, UniProt P11712). The experiment in a line: Inhibition of CYP2C9 (unknown origin). It counts as ADME.
Data set [8] can be described thus: Metabolic stability in dog liver microsomes assessed as half-life measured upto 120 mins in presence of NADPH-generating system by LC/MS/MS analysis. It is filed as ADME, Canis lupus familiaris, Microsome. In general terms: Liver microsomes are a subcellular fraction often used to study metabolism.
A further data set addresses Cytochrome P450 2C19 (Homo sapiens, UniProt P33261). The experiment in a line: Inhibition of CYP2C19 (unknown origin). It is filed as ADME.
For data set [9], the system named is Mus musculus. The experiment in a line: Immunosuppressive activity in MOG (35 to 55 residues)/pertussis toxin-induced experimental autoimmune encephalomyelitis C57BL/6 mouse model assessed as maximum efficacy causing reduction in EAE spinal cord clinical score administered orally once daily starting from day 1 post immunization and measured thrice weekly until day 24. It counts as functional.

The subject of a further data set is Rattus norvegicus. As to the kind of experiment: Reduction in circulating lymphocytes in Lewis rat blood assessed as effective dose after oral dosing measured at 24 hrs by hematology analyzer based analysis. It is filed as functional.
Another data set has as its target T1, Cytochrome P450 2B6 (Homo sapiens, UniProt P20813).
T1 sequence (P20813 whole entry): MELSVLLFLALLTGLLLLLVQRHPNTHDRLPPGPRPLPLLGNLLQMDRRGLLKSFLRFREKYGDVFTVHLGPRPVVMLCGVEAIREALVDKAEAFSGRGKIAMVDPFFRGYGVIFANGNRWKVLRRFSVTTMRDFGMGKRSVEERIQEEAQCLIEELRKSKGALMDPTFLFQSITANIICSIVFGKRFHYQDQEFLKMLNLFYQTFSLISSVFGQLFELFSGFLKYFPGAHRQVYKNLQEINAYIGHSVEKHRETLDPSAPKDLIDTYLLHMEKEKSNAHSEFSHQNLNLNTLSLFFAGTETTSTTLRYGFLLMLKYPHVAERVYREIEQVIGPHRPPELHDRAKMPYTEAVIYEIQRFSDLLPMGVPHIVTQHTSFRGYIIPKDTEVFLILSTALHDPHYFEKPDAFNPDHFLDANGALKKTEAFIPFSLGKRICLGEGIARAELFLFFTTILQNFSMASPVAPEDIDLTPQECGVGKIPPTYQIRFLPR
As to the kind of experiment: Inhibition of CYP2B6 (unknown origin). It is filed as ADME.

Data set [10] is described as follows: Genotoxicity in bacteria by Ames test. It is filed as toxicity. Background: The Ames test uses bacterial strains that need an amino acid and regain growth without it when mutated back.
In the next data set the target is T2, Cytochrome P450 1A2 (Homo sapiens, UniProt P05177).
T2 sequence (P05177 whole entry): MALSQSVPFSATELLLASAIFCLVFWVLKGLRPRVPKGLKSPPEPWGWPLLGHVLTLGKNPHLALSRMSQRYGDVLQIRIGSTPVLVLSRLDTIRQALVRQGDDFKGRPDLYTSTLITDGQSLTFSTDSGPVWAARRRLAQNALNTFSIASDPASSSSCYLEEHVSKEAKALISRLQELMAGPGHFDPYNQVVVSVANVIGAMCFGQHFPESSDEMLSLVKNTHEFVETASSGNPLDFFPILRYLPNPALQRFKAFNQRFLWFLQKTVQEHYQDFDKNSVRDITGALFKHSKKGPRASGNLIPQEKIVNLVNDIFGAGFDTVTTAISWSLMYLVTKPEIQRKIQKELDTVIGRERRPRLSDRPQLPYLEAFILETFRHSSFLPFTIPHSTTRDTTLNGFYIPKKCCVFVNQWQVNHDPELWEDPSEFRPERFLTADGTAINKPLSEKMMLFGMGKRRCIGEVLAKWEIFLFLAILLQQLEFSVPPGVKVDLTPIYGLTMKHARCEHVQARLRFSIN
As to the kind of experiment: Inhibition of CYP1A2 (unknown origin). It counts as ADME.

The nature of data set [11]: Protein binding in mouse assessed as bound fraction. It counts as ADME. The following applies: read-out: PB.
Data set [12] can be described thus: Terminal half-life in cynomolgus monkey at 1 mg/kg, iv. It is filed as ADME, organism-based, Macaca fascicularis. The following applies: in vivo, read-out: beta t1/2 (converted).
Data set [13] in a line: Tmax in Sprague-Dawley rat at 1 mg/kg, po or 1 mg/kg, iv. It counts as ADME, organism-based. As to conditions: in vivo.
Data set [14] can be described thus: Ratio of drug metabolism in Lewis rat blood assessed as phosphate ester metabolite to parent drug at 2 mg/kg, po measured at 24 hrs by LC-MS/MS analysis. It counts as ADME, organism-based. As to conditions: in vivo.
Data set [15] is described as follows: Clearance in cynomolgus monkey at 1 mg/kg, iv. It counts as ADME, organism-based, Macaca fascicularis. The following applies: in vivo.
For another data set, the target named is Cytochrome P450 3A4 (Homo sapiens, UniProt P08684). The experiment in a line: Inhibition of CYP3A4 (unknown origin). It is filed as ADME.
The target in another data set is Cytochrome P450 2D6 (Homo sapiens, UniProt P10635). As to the kind of experiment: Inhibition of CYP2D6 (unknown origin). It counts as ADME.

Molecules are shown by their SMILES.

Chain of Cytochrome P450 3A4 (P08684 whole entry): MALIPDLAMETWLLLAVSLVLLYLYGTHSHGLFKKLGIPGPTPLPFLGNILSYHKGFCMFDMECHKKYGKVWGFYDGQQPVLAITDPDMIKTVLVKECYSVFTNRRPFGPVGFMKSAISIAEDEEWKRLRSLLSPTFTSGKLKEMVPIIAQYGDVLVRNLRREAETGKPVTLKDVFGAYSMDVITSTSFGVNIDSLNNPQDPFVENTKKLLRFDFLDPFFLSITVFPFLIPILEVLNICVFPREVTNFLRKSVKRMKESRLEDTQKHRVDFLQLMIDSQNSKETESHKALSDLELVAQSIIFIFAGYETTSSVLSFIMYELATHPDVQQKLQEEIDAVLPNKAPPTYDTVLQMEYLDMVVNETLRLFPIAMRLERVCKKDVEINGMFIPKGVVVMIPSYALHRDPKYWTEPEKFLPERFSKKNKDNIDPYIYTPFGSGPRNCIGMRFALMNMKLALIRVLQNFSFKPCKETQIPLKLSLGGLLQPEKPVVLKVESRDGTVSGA
Chain of Cytochrome P450 2D6 (P10635 whole entry): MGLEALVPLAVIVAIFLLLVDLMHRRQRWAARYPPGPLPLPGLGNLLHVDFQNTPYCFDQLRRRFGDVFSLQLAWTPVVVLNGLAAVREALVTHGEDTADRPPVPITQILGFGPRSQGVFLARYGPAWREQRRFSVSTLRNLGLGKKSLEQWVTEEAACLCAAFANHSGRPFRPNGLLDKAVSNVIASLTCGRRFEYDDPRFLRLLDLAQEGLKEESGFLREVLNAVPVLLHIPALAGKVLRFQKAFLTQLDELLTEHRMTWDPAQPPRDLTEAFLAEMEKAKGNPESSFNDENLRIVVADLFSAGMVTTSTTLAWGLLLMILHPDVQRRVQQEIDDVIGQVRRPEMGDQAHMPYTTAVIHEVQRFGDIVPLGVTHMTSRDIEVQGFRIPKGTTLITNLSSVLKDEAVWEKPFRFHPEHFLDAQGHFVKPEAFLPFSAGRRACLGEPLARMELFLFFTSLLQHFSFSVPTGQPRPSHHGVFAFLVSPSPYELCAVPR
Chain of Cytochrome P450 2C9 (P11712 whole entry): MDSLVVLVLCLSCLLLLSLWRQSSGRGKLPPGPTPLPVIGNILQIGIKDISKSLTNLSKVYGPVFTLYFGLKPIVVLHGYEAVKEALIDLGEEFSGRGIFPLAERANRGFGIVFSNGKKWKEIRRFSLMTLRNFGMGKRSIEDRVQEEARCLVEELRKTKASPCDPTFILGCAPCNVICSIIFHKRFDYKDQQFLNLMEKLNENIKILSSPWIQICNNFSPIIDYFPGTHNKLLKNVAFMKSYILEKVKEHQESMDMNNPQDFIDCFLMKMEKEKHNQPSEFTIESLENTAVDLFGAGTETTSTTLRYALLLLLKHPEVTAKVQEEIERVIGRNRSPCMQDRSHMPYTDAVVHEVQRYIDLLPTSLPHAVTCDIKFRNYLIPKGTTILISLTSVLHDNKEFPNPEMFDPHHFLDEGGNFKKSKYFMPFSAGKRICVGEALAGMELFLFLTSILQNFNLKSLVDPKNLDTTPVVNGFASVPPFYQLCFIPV
Chain of Cytochrome P450 2C19 (P33261 whole entry, the tested form may be a part): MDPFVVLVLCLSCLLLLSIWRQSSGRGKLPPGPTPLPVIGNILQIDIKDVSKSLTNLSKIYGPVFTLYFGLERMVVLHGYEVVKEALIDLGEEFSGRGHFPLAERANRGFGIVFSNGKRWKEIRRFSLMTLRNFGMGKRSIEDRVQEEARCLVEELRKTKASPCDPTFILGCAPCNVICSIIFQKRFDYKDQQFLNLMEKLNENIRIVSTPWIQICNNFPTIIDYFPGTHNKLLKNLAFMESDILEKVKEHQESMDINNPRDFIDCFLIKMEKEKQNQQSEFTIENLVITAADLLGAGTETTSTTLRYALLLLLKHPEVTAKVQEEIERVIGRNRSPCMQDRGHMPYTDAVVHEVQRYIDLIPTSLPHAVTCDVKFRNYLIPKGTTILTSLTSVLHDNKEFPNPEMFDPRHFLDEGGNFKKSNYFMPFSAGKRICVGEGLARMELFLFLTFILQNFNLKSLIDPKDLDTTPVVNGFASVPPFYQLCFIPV

With `COc1ccccc1CC[C@@H]1CCc2cc([C@H]3CC[C@](N)(CO)C3)ccc2C1` [UDIFITIMOD], the half-life is 27 h in [1], 38 h in data set [7], 6.2 h in [8] and 46 h in data set [12]. This molecule had a bioavailability in [2] of 23%. Besides, the “Ratio AUC” value in data set [3] is 3.1. Further, the Tmax in data set [4] and in [13] was 6 h in each case. In addition, the Activity result in the data set on Mus musculus [5] is “Dose-dependent effect”; with Mus musculus [6], 41%; in data set [10], “Non-Toxic”. Also, the IC50 against Cytochrome P450 2C9 is 14 µM; at Cytochrome P450 2C19, 6.9 µM; against Cytochrome P450 2B6, 17 µM; at Cytochrome P450 1A2, over 20 µM; at Cytochrome P450 3A4 it was 5.5 µM; on Cytochrome P450 2D6, 18 µM. In addition, the Emax in the data set on Mus musculus [9] was 0.5 mg/kg/day. Moreover, in the data set with Rattus norvegicus, the ED50 stood at 0.1 mg/kg. In data set [11], the fraction unbound is under 0.001. Moreover, the Ratio in [14] is 5. For the same molecule, the clearance in data set [15] came to 3.8 mL/min/kg.
